Reference: patent EP4667483A1, “HUMAN TRANSFERRIN RECEPTOR-BINDING PEPTIDE” (JCR Pharmaceuticals Co., Ltd., priority 2023, dated 2024)
pKd: −log10 of the molar value. Numbered stars: 1 amine (or outer) side, 2 acyl side, 3 side chain; on linkers, the order of the positions; unused ones are H or OH. Bridge positions count the residues as written; N and C are the ends. Square brackets hold non-standard residues; d marks the D form. Side chains are listed from the residue outwards. Peptide text beside a SMILES is read from it. * marks the point of attachment. Ala(imidazo(1,2-a)pyr3yl) = N[C@@H](Cc1cnc2ccccn12)C(=O)O; Trp(1-CH2COOH) = N[C@@H](Cc1cn(CC(=O)O)c2ccccc12)C(=O)O; CH2CON(CH2CH2)2NCH2COOH = O=C(O)CN1CCN(C(=O)C*)CC1; NMePhe(4-COOH) = CN[C@@H](Cc1ccc(C(=O)O)cc1)C(=O)O; X1 = O=C([C@H](Cc1cccc(C(=O)[*:3])c1)N[*:1])[*:2]; Nle(6-morpholino) = N[C@@H](CCCCN1CCOCC1)C(=O)O; Phe(3-COOH) = N[C@@H](Cc1cccc(C(=O)O)c1)C(=O)O; Trp(7-aza) = N[C@@H](Cc1c[nH]c2ncccc12)C(=O)O; NMePhe(3-Cl) = CN[C@@H](Cc1cccc(Cl)c1)C(=O)O; Piperazinyl(4-CH2COOH) = O=C(O)CN1CCN(*)CC1; 3Pal(6-NH2) = Nc1ccc(C[C@H](N)C(=O)O)cn1; NMeW = CN[C@@H](Cc1c[nH]c2ccccc12)C(=O)O; Lys(N3) = [N-]=[N+]=NCCCC[C@H](N)C(=O)O; NMeY = CN[C@@H](Cc1ccc(O)cc1)C(=O)O; Nva(3-Et) = CCC(CC)[C@H](N)C(=O)O; NMeF = CN[C@@H](Cc1ccccc1)C(=O)O; 4Pal = N[C@@H](Cc1ccncc1)C(=O)O; PEG4 = NCCOCCOCCOCCOCCC(=O)O; Carboxymethyl = O=C(O)C*; CO = O=C([*:1])[*:2]

Tests used:
[1] = target: T1, human transferrin receptor (hTfR) (Homo sapiens, UniProt P02786); test: SPR measurement under pH 7.4 conditions (Biacore T200, CM3 chip, hTfR captured by His Tag antibody); assay type: binding; details: read-out: hTfR SPR pH7.4 KD
T1 sequence (P02786 whole entry): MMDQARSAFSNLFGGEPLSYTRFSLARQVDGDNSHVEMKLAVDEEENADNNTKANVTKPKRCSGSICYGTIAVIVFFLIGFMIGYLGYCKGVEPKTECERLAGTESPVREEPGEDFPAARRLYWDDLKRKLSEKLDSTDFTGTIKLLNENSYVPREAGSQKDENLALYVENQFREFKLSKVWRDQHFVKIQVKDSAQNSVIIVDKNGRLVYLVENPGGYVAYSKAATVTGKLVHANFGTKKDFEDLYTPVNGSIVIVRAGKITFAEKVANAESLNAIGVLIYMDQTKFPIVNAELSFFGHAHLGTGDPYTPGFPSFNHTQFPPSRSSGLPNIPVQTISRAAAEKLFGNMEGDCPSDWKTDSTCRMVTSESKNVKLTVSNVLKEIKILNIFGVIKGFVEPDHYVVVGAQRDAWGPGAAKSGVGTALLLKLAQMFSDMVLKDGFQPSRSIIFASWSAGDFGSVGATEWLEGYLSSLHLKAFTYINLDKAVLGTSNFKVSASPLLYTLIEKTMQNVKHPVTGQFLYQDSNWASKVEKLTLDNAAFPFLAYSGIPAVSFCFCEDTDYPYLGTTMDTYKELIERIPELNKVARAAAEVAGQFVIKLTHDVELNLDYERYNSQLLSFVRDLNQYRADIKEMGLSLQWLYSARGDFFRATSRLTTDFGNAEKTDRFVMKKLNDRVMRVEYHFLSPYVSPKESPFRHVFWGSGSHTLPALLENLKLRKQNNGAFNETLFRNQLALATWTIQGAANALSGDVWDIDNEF

[2] = target: T1, human transferrin receptor (hTfR); test: SPR measurement under pH 6.0 conditions (Biacore T200, NTA chip, immobilized hTfR); assay type: binding; details: read-out: hTfR SPR pH6.0 KD

SMILES	pKd ([1]; pH 7.4, single-cycle kinetics)	pKd ([2]; pH 6.0, single-cycle kinetics)	other results
CCC(CC)[C@@H]1NC(=O)[C@H](Cc2ccc(O)cc2)NC(=O)[C@H](Cc2ccc(N)nc2)NC(=O)[C@H](CC(N)=O)NC(=O)[C@H](Cc2c[nH]c3ccccc23)N(C)C(=O)[C@H](C(C)C)NC(=O)[C@H](Cc2ccccc2)N(C)C(=O)[C@H](C(C)C)NC(=O)[C@H](C)NC(=O)CSC[C@@H](C(=O)NCC(=O)N[C@@H](CCCCN=[N+]=[N-])C(N)=O)NC(=O)[C@H](Cc2ccc(C(=O)O)cc2)N(C)C(=O)[C@H](Cc2ccc(O)cc2)NC(=O)[C@H](CCCNC(=N)N)NC(=O)[C@H](CCCCN)NC(=O)[C@H]([C@@H](C)CC)NC1=O [compound 187] ({CH2CO}-AV[NMeF]V[NMeW]N[3Pal(6-NH2)]Y[Nva(3-Et)]IKRY[NMePhe(4-COOH)]CG[Lys(N3)]-NH2; thioether N-15)			pKd ([1]; SPR, pH 7.4, Table 1-3-2-2): 8.00; pKd ([2]; SPR, pH 6.0, Table 1-3-2-2): 7.51
CCC(CC)[C@@H]1NC(=O)[C@H](Cc2ccc(OCC(=O)O)cc2)NC(=O)[C@H](Cc2ccc(N)nc2)NC(=O)[C@H](CC(N)=O)NC(=O)[C@H](Cc2c[nH]c3ncccc23)NC(=O)[C@H](C(C)C)NC(=O)[C@H](Cc2cccc(Cl)c2)N(C)C(=O)[C@H](C(C)C)NC(=O)[C@H](C)NC(=O)CSC[C@@H](C(=O)NCCOCCOCCOCCOCCC(N)=O)NC(=O)[C@H](Cc2ccc(C(=O)O)cc2)N(C)C(=O)[C@H](Cc2cccc(C(=O)O)c2)NC(=O)[C@H](CCCNC(=N)N)NC(=O)[C@H](CCC(N)=O)NC(=O)[C@H]([C@@H](C)CC)NC1=O [compound 45] ({CH2CO}-AV[NMePhe(3-Cl)]V[Trp(7-aza)]N[3Pal(6-NH2)]Y(Carboxymethyl)[Nva(3-Et)]IQR[Phe(3-COOH)][NMePhe(4-COOH)]C[PEG4]-NH2; thioether N-15)	7.12	6.06	
CC[C@H](C)[C@@H]1NC(=O)[C@H](Cc2ccc(OC)cc2)NC(=O)[C@H](Cc2ccc(N)nc2)NC(=O)[C@H](CC(N)=O)NC(=O)[C@H](Cc2c[nH]c3ccccc23)NC(=O)[C@H](C(C)C)NC(=O)[C@H](Cc2cccc(Cl)c2)N(C)C(=O)[C@H](C(C)C)NC(=O)[C@H](C)NC(=O)CSC[C@@H](C(=O)NCCOCCOCCOCCOCCC(N)=O)NC(=O)[C@H](Cc2ccc(O)cc2)N(C)C(=O)[C@H](Cc2ccncc2)NC(=O)[C@H](CCCNC(=N)N)NC(=O)[C@H](CCCCN)NC(=O)[C@H]([C@@H](C)CC)NC1=O [compound 57] ({CH2CO}-AV[NMePhe(3-Cl)]VWN[3Pal(6-NH2)]Y(Me)IIKR[4Pal][NMeY]C[PEG4]-NH2; thioether N-15)	9.01	8.27	
CC[C@H](C)[C@@H]1NC(=O)[C@H](Cc2ccc(OC)cc2)NC(=O)[C@H](Cc2ccc(N)nc2)NC(=O)[C@H](CC(N)=O)NC(=O)[C@H](Cc2c[nH]c3ncccc23)NC(=O)[C@H](C(C)C)NC(=O)[C@H](Cc2cccc(Cl)c2)N(C)C(=O)[C@H](C(C)C)NC(=O)[C@H](C)NC(=O)CSC[C@@H](C(=O)NCCOCCOCCOCCOCCC(N)=O)NC(=O)[C@H](Cc2ccc(O)cc2)N(C)C(=O)[C@H](Cc2ccncc2)NC(=O)[C@H](CCCNC(=N)N)NC(=O)[C@H](CCC(=O)NCCOCCOCCOCCOCCOCCOCCOCCOC)NC(=O)[C@H]([C@@H](C)CC)NC1=O [compound 11]	8.15	6.96	
CC[C@H](C)[C@@H]1NC(=O)[C@H](Cc2ccc(OCC(=O)O)cc2)NC(=O)[C@H](Cc2ccc(O)cc2)NC(=O)[C@H](CC(N)=O)NC(=O)[C@H](Cc2c[nH]c3ncccc23)NC(=O)[C@H](C(C)C)NC(=O)[C@H](Cc2cccc(Cl)c2)N(C)C(=O)[C@H](C(C)C)NC(=O)[C@H](C)NC(=O)CSC[C@@H](C(=O)NCCOCCOCCOCCOCCC(N)=O)NC(=O)[C@H](Cc2ccc(O)cc2)N(C)C(=O)[C@H](Cc2ccncc2)NC(=O)[C@H](CCCNC(=N)N)NC(=O)[C@H](CCC(=O)NCCOCCOCCOCCOCCOCCOCCOCCOCCC(=O)O)NC(=O)[C@H]([C@@H](C)CC)NC1=O [compound 62]	7.55	7.04	
CC[C@H](C)[C@@H]1NC(=O)[C@H](Cc2ccc(OCC(=O)N3CCN(CC(=O)O)CC3)cc2)NC(=O)[C@H](Cc2ccc(N)nc2)NC(=O)[C@H](CC(N)=O)NC(=O)[C@H](Cc2cn(CC(=O)O)c3ccccc23)NC(=O)[C@H](C(C)C)NC(=O)[C@H](Cc2cccc(Cl)c2)N(C)C(=O)[C@H](C(C)C)NC(=O)[C@H](C)NC(=O)CSC[C@@H](C(=O)NCCOCCOCCOCCOCCC(N)=O)NC(=O)[C@H](Cc2ccc(O)cc2)N(C)C(=O)[C@H](Cc2ccncc2)NC(=O)[C@H](CCCCN2CCOCC2)NC(=O)[C@H](CCCCNC(=O)N2CCN(CC(=O)O)CC2)NC(=O)[C@H]([C@@H](C)CC)NC1=O [compound 17] ({CH2CO}-AV[NMePhe(3-Cl)]V[Trp(1-CH2COOH)]N[3Pal(6-NH2)]Y(CH2CON(CH2CH2)2NCH2COOH)IIK([CO-Piperazinyl(4-CH2COOH)])[Nle(6-morpholino)][4Pal][NMeY]C[PEG4]-NH2; thioether N-15)	8.37	6.30	
CCC(CC)[C@@H]1NC(=O)[C@H](Cc2ccc(OC)cc2)NC(=O)[C@H](Cc2ccc(N)nc2)NC(=O)[C@H](CC(N)=O)NC(=O)[C@H](Cc2cnc3ccccn23)NC(=O)[C@H](C(C)C)NC(=O)[C@H](Cc2cccc(Cl)c2)N(C)C(=O)[C@H](C(C)C)NC(=O)[C@H](C)NC(=O)CSC[C@@H](C(=O)NCC(=O)N[C@@H](CCCCN=[N+]=[N-])C(N)=O)NC(=O)[C@H](Cc2ccc(C(=O)O)cc2)N(C)C(=O)[C@H](Cc2ccncc2)NC(=O)[C@H](CCCNC(=N)N)NC(=O)[C@H](CCCNC(=N)N)NC(=O)[C@H]([C@@H](C)CC)NC1=O [compound 181] ({CH2CO}-AV[NMePhe(3-Cl)]V[Ala(imidazo(1,2-a)pyr3yl)]N[3Pal(6-NH2)]Y(Me)[Nva(3-Et)]IRR[4Pal][NMePhe(4-COOH)]CG[Lys(N3)]-NH2; thioether N-15)	7.61	6.91	
CC[C@H](C)[C@@H]1NC(=O)[C@H](Cc2ccc(OCC(=O)O)cc2)NC(=O)[C@H](Cc2ccc(N)nc2)NC(=O)[C@H](CC(N)=O)NC(=O)[C@H](Cc2c[nH]c3ncccc23)NC(=O)[C@H](C(C)C)NC(=O)[C@H](Cc2cccc(Cl)c2)N(C)C(=O)[C@H](C(C)C)NC(=O)[C@H](C)NC(=O)CSC[C@@H](C(=O)NCCOCCOCCOCCOCCC(N)=O)NC(=O)[C@H](Cc2ccc(O)cc2)N(C)C(=O)[C@H](Cc2ccncc2)NC(=O)[C@H](CCCCN2CCOCC2)NC(=O)[C@H](CCCCN2CCOCC2)NC(=O)[C@H]([C@@H](C)CC)NC1=O [compound 7] ({CH2CO}-AV[NMePhe(3-Cl)]V[Trp(7-aza)]N[3Pal(6-NH2)]Y(Carboxymethyl)II[Nle(6-morpholino)][Nle(6-morpholino)][4Pal][NMeY]C[PEG4]-NH2; thioether N-15)	7.79	7.05	
CC[C@H](C)[C@@H]1NC(=O)[C@H](Cc2ccc(OCC(=O)N3CCN(CC(=O)O)CC3)cc2)NC(=O)[C@H](Cc2ccc(N)nc2)NC(=O)[C@H](CC(N)=O)NC(=O)[C@H](Cc2cn(CC(=O)O)c3ccccc23)NC(=O)[C@H](C(C)C)NC(=O)[C@H](Cc2cccc(Cl)c2)N(C)C(=O)[C@H](C(C)C)NC(=O)[C@H](C)NC(=O)CSC[C@@H](C(=O)NCCOCCOCCOCCOCCC(N)=O)NC(=O)[C@H](Cc2ccc(C(=O)O)cc2)N(C)C(=O)[C@H](Cc2cccc(C(=O)O)c2)NC(=O)[C@H](CCCCN2CCOCC2)NC(=O)[C@H](CCC(N)=O)NC(=O)[C@H]([C@@H](C)CC)NC1=O [compound 51] ({CH2CO}-AV[NMePhe(3-Cl)]V[Trp(1-CH2COOH)]N[3Pal(6-NH2)]Y(CH2CON(CH2CH2)2NCH2COOH)IIQ[Nle(6-morpholino)][Phe(3-COOH)][NMePhe(4-COOH)]C[PEG4]-NH2; thioether N-15)	5.81	6.16	
CC[C@H](C)[C@@H]1NC(=O)[C@H](Cc2ccc(OC)cc2)NC(=O)[C@H](Cc2ccc(N)nc2)NC(=O)[C@H](CC(N)=O)NC(=O)[C@H](Cc2cnc3ccccn23)NC(=O)[C@H](C(C)C)NC(=O)[C@H](Cc2ccccc2)N(C)C(=O)[C@H](C(C)C)NC(=O)[C@H](C)NC(=O)CSC[C@@H](C(=O)NCC(=O)N[C@@H](CCCCN=[N+]=[N-])C(N)=O)NC(=O)[C@H](Cc2ccc(C(=O)O)cc2)N(C)C(=O)[C@H](Cc2ccncc2)NC(=O)[C@H](CCCNC(=N)N)NC(=O)[C@H](CCCNC(=N)N)NC(=O)[C@H]([C@@H](C)CC)NC1=O [compound 189] ({CH2CO}-AV[NMeF]V[Ala(imidazo(1,2-a)pyr3yl)]N[3Pal(6-NH2)]Y(Me)IIRR[4Pal][NMePhe(4-COOH)]CG[Lys(N3)]-NH2; thioether N-15)			pKd ([1]; SPR, pH 7.4, Table 1-3-2-2): 7.09; pKd ([2]; SPR, pH 6.0, Table 1-3-2-2): 6.42
CC[C@H](C)[C@@H]1NC(=O)[C@H](Cc2ccc(OC)cc2)NC(=O)[C@H](Cc2ccc(N)nc2)NC(=O)[C@H](CC(N)=O)NC(=O)[C@H](Cc2c[nH]c3ccccc23)NC(=O)[C@H](C(C)C)NC(=O)[C@H](Cc2cccc(Cl)c2)N(C)C(=O)[C@H](C(C)C)NC(=O)[C@H](C)NC(=O)CSC[C@@H](C(=O)NCCOCCOCCOCCOCCC(N)=O)NC(=O)[C@H](Cc2ccc(C(=O)O)cc2)N(C)C(=O)[C@H](Cc2cccc(C(=O)NCCOCCOCCOCCOCCC(=O)O)c2)NC(=O)[C@H](CCCNC(=N)N)NC(=O)[C@H](CCC(N)=O)NC(=O)[C@H]([C@@H](C)CC)NC1=O [compound 115] ({CH2CO}-AV[NMePhe(3-Cl)]VWN[3Pal(6-NH2)]Y(Me)IIQR[X1](PEG4)[NMePhe(4-COOH)]C[PEG4]-NH2; thioether N-15)			pKd ([1]; SPR, pH 7.4, peptide with the linker named in the table): 8.74; pKd ([2]; SPR, pH 6.0, peptide with the linker named in the table): 7.90
CC[C@H](C)[C@@H]1NC(=O)[C@H](Cc2ccc(OC)cc2)NC(=O)[C@H](Cc2ccc(N)nc2)NC(=O)[C@H](CC(N)=O)NC(=O)[C@H](Cc2c[nH]c3ccccc23)NC(=O)[C@H](C(C)C)NC(=O)[C@H](Cc2cccc(Cl)c2)N(C)C(=O)[C@H](C(C)C)NC(=O)[C@H](C)NC(=O)CSC[C@@H](C(=O)NCCOCCOCCOCCOCCC(N)=O)NC(=O)[C@H](Cc2ccc(C(=O)O)cc2)N(C)C(=O)[C@H](Cc2ccncc2)NC(=O)[C@H](CCCNC(=N)N)NC(=O)[C@H](CCCCN)NC(=O)[C@H]([C@@H](C)CC)NC1=O [compound 59] ({CH2CO}-AV[NMePhe(3-Cl)]VWN[3Pal(6-NH2)]Y(Me)IIKR[4Pal][NMePhe(4-COOH)]C[PEG4]-NH2; thioether N-15)	8.84	8.02	
